Results on eleven compounds are retold here after paper PMC6266398, “Anti-Acanthamoeba Activity of Brominated Sesquiterpenes from Laurencia johnstonii” (Marine Drugs, 2018).

Values after ≈ are worked out from the molar mass of the structure shown. Values joined by “and” are separate entries in the source; they are usually repeats but may differ in a detail not shown here. Equal values may be shown once. Read-outs that look alike come from different tables or passages of the source.

Series [1] relates to Acanthamoeba castellanii Neff. Put plainly: anti-Acanthamoeba activity, alamarBlue method. Format: cell-based. The settings on record: for IC50: Acanthamoeba castellanii, ATCC30010, 96 h, read-out: IC50 against Acanthamoeba castellanii Neff; for anti-Acanthamoeba activity (in words): Acanthamoeba castellanii Neff. The method, then: The amoeba strain used in this study was the type strain: Acanthamoeba castellanii Neff (ATCC 30010) which was axenically grown in PYG medium (0.75% (w/v) proteose peptone, 0.75% (w/v) yeast extract and 1.5% (w/v) glucose) containing 40 μg/mL of gentamicin (Biochrom AG, Cultek, Granollers, Barcelona, Spain).
To evaluate the biological activity of the fractions and molecules, the anti-Acanthamoeba assays were determined using the alamarBlue® method as previously described. Firstly, Acanthamoeba strain was seeded in triplicate on a 96-well microtiter plates with 50 μL from a stock solution of 10^4 cells/mL. Amoebae were left to adhere to the bottom of the well for 15 min, which was checked using a Leika DMIL inverted microscope (Leika, Wetzlar, Germany). After that, 50 μL of serial dilutions of the molecules were added to the wells (1% DMSO was used to dissolve the highest dose of the compounds with no effects on the parasites). […] Finally, the alamarBlue Reagent® (Life Technologies, Madrid, Spain) was placed into each well at an amount equal to 10% of the final volume. Then, plates containing alamarBlue® were incubated for 96 h at 26 °C with a slight agitation.
(§1) Briefly, the test plates were analyzed, during an interval of time between 24 and 96 h, on an EnSpire® Multimode Plate Reader (Perkin Elmer, Madrid, Spain) using fluorescence, a test wavelength of 570 nm and a reference wavelength of 630 nm. The percentage of the growth inhibition, 50% inhibitory concentration (IC50 or CC50) was calculated by linear regression analysis with 95% confidence limits using Sigma Plot 12.0 statistical analysis software (Systat Software). All experiments were performed three times, and the mean values were also calculated. A paired two-tailed t-test was used for analysis of the data. Values of p < 0.05 were considered significant.
(The colour change of resazurin is a common sign of viable cells or microbes.)

Series [2] is described as follows: cytotoxicity test, alamarBlue method. The settings on record: mouse, 37 °C, read-out: CC50 against murine macrophage J774.A1. Format: cell-based. The protocol: The murine macrophages J774A.1 (ATCC# TIB-67) cell line was cultured in RPMI 1640 medium supplemented with 10% fetal bovine serum at 37 °C and 5% CO2 atmosphere, was used for the cytotoxicity assays.
The cytotoxicity assay was carried out using the alamarBlue® method as previously described. Firstly, the macrophages were seeded in triplicate on a 96-well microtiter plates with 50 μL from a stock solution of 2 × 10^5 cells/mL. Macrophages were left to adhere to the bottom of the well for 15 min, which was checked using a Leika DMIL inverted microscope (Leika, Wetzlar, Germany). After that, 50 μL of serial dilutions of the molecules were added to the wells. Finally, the alamarBlue Reagent® (Life Technologies, Madrid, Spain) was placed into each well at an amount equal to 10% of the final volume. Then, plates containing alamarBlue® were incubated for 24 h at 37 °C in presence of CO2 at 5%.
as §1

The mark [3] stands for this setting: Neff strain (ATCC 30010), alamarBlue, 96 h at 26 °C.
Where [4] appears, read: J774A.1 macrophages (ATCC TIB-67).

The term IC50 denotes the concentration that gives 50% inhibition. The CC50 is the concentration that lowers cell viability or growth by half. For the compound `[H]/N=C(\N/C(=N/[H])NCCCCCCNC(=N)NC(=N)Nc1ccc(Cl)cc1)Nc1ccc(Cl)cc1` [Chlorhexidine, chlorhexidine, reference compound], in series [1] (setting [3]), the IC50 was 1.53 µg/mL and 3.02 µM. Besides, in series [2] (setting [4]), the cytotoxic concentration (CC50) at 24 h amounted to 6.64 ± 0.35 µg/mL (≈ 13.1 µM).
Consider `C[C@@H](c1ncncc1F)[C@](O)(Cn1cncn1)c1ccc(F)cc1F` [Voriconazole, voriconazole, reference compound], for which the IC50 in series [1] (setting [3]) is 0.33 µg/mL and 940 nM. In addition, in series [2] (setting [4]), the half-maximal cytotoxic concentration (CC50) at 24 h came to 2.64 ± 0.27 µg/mL (≈ 7.56 µM).
In the case of `Cc1cc(O)c(C2(C)CCC3CC32C)cc1Br` (centres unmarked) [compound 1, laurinterol], the “anti-Acanthamoeba activity (in words)” value in series [1] is “inactive”. In addition, in series [1] (setting [3]), the IC50 is greater than 100 µg/mL. In series [2] (setting [4]), the CC50 at 24 h came out at 23.6 ± 2.3 µg/mL (≈ 80.1 µM).
Taken in the same sequence, the figures for `C=C1[C@@H](C)CC[C@@]1(C)c1cc(Br)c(C)cc1O` [compound 2, isolaurinterol] were “inactive”, greater than 100 µg/mL and 7.25 ± 0.7 µg/mL (≈ 24.6 µM).
Turning to `Cc1cc2c(cc1Br)[C@]1(C)CC[C@H](C)[C@]1(C)O2` [compound 3, aplysin], the IC50 in series [1] (setting [3]) is greater than 100 µg/mL. The CC50 at 24 h in series [2] (setting [4]) came to 324 ± 12 µg/mL (≈ 1100 µM).
As for `Cc1ccc([C@]2(C)CC[C@@H](Br)C2(C)C)cc1` [compound 4, α-bromocuparane], in series [1] (setting [3]), the half-inhibitory concentration (IC50) is 90.7 µg/mL and 322 µM; the “IC50 against Acanthamoeba castellanii Neff” value was 90.674 ± 1.529 µg/mL (≈ 322 µM). Besides, the CC50 at 24 h in series [2] (setting [4]) is 33 ± 4.2 µg/mL (≈ 117 µM).
For the compound `Cc1ccc([C@]2(C)CC[C@H](Br)C2(C)C)cc1` [compound 5, α-isobromocuparane], in series [1] (setting [3]), the IC50 is 64.2 µg/mL and 228 µM; the “IC50 against Acanthamoeba castellanii Neff” value is on record as 64.251 ± 3.492 µg/mL (≈ 228 µM). In series [2] (setting [4]), the CC50 at 24 h was determined as 85.3 ± 10.9 µg/mL (≈ 303 µM).
Regarding `Cc1c(Br)cc2c(c1Br)O[C@@]1(C)[C@@H](C)CC[C@@]21C` [compound 6, 8-Bromoaplysin], the concentration for half-maximal inhibition (IC50) in series [1] (setting [3]) was 24.6 µg/mL and 65.6 µM. Further, the 50% cytotoxic concentration (CC50) at 24 h in series [2] (setting [4]) came out at 32.9 ± 3.12 µg/mL (≈ 87.9 µM).
In the case of `Cc1c(Br)cc2c(c1Br)O[C@@]1(C)C[C@@H](Br)CC[C@@]21C` [compound 7, 3α-Bromojohnstane], in series [1] (setting [3]), the concentration for half-maximal inhibition (IC50) is 18.8 µg/mL and 41.5 µM. Besides, the cytotoxic concentration (CC50) at 24 h in series [2] (setting [4]) was 62.3 ± 2.59 µg/mL (≈ 138 µM).
With `Cc1c(Br)cc2c(c1Br)O[C@@]1(CBr)[C@@H](C)CC[C@@]21C` [compound 8, 8,10-Dibromoisoaplysin], the IC50 in series [1] was 22.8 µg/mL and 50.4 µM. Also, the CC50 at 24 h in series [2] came out at 70.4 ± 3.25 µg/mL (≈ 155 µM).
Regarding `Cc1c(Br)cc2c(c1Br)O[C@@]1(CO)[C@@H](C)CC[C@@]21C` [compound 9, 8,10-Dibromoaplysinol], in series [1] (setting [3]), the IC50 was 29.9 µg/mL and 76.7 µM. Further, the CC50 at 24 h in series [2] (setting [4]) worked out at 74.9 ± 2.77 µg/mL (≈ 192 µM).
